In paper PMC10952535, “The differential binding and biological efficacy of auxin herbicides” (Pest Management Science, 2022):
pKd: −log10 of the molar value. Read-outs that look alike come from different tables or passages of the source.

Experiments:
[1] = tested on: Arabidopsis thaliana afb5‐1 mutant line; assay type: in vivo; conditions: for GR50 (DW % of NT) / GR50 (visual injury): afb5‐1, foliar application; for GR50 (DW % of NT): dry weight at 14 DAT; for Resistance ratio (afb5‐1 vs WT), DW: ratio of dry weight GR50 values; for Resistance ratio (afb5‐1 vs WT), DW / Resistance ratio (afb5‐1 vs WT), visual injury: foliar application; for Resistance ratio (afb5‐1 vs WT), visual injury: ratio of visual injury GR50 values
Protocol: (§1) Bioassays were carried out with the model species Arabidopsis thaliana. The wild type (WT) Col‐0 line was compared to an afb5‐1 mutant line in a Col‐0 background containing a missense mutation of R609K.[11] A. thaliana seeds were sown on Metro‐mix 360 potting mix (Sungro Horticulture) supplemented with vermiculite and stratified for 3 days at 4 °C in the dark. Flats were moved to a growth chamber (as above) and a plastic lid was placed on the flat. On germination, the lid was removed. After 2 weeks in the growth chamber, seedlings were transplanted into 3‐in. pots with Metro‐mix 360 potting mix and moved to a greenhouse. The greenhouse was maintained at a day/night temperature of 23/22 °C and supplemented with light to complete a 16 h photoperiod. Plants were allowed to recover from transplanting for 1 week prior to applications. A. thaliana seedlings were sprayed with test compounds at five rates with four replications. Tests included nontreated and solvent check controls. Individual compound doses varied and were based on plate test data or anecdotal potency. Compounds were formulated as technical material and were initially dissolved in 1 part 97:3 (v/v) acetone: dimethylsufoxide (DMSO) followed by 5 parts 1.5% (v/v) Agridex crop oil concentrate in distilled water to give a final concentration of 1.25% (v/v) Agridex. Formulated compounds were sprayed at a volume of 187 L ha^−1 at a spray height of 43 cm above the plants with an overhead Mandel track sprayer set with 8002 E Tee jet nozzle. Plants were treated at rosette stage just prior to or at initiation of bolting. After spray application, plants were allowed to dry then moved back to the greenhouse. Plants were grown in the greenhouse (same conditions as above) for 2 weeks until harvest. Visual injury/growth reduction observations were made at 7 and 14 days after treatment (DAT) and scored where 0% = no growth reduction and 100% = complete growth reduction or plant death. At 14 DAT the plants were harvested and dried to collect dry weight (DW) biomass.
(§2) The data collected in the foliar application of compounds generated a measure of sensitivity or dose response. The data was analyzed by regression in JMP 10.0 and fit to a nonlinear exponential three parameter fit model:
(§3) where a is the asymptote, b is the scale and c is the rate of growth. The model was used to determine the herbicidal dose that caused 50% reduction in growth (GR50). GR50 values were compared between mutant and WT to give an indication of fold resistance over WT (Table 3). A log‐logistic model[24] was also used to fit the data and gave similar GR50 values with greater standard errors without changing the pattern of responsiveness.

AtAFB2 [2] = molecular target: T1, AtAFB2 (Arabidopsis thaliana, UniProt Q9LW29); test: SPR relative binding (co-receptor complex formation with Aux/IAA7 degron), AtAFB2; conditions: 50 μM compound; for Relative binding (in words): compared to IAA; for % of IAA binding: normalized to IAA = 100%
T1 construct: His10 (N, cleaved yes); eGFP (N, cleaved yes); FLAG (N, cleaved yes); made in house; host or cells: baculovirus; Trichoplusia ni Hi5 cells (virus generated in Sf9)
Protocol: (§4) Auxin binding assays using surface plasmon resonance (SPR) were performed on a Biacore 2000 as described previously.[3], [18], [23] Protein was stored on ice and protein concentrations were assayed by A280 nm measurement (nanodrop, Thermo Scientific). Briefly, AtAux/IAA7 degron peptide was immobilized on streptavidin‐coated SPR chips, and binding was measured in the presence of IAA or auxin analogue by recruitment of the TIR1/AFB protein from solution as the co‐receptor complex formed on the chip. Kinetic analyses were performed by single cycle kinetics on a Biacore T200 (Cytiva Life Sciences), titrating compounds against a fixed concentration of TIR1 before injection. The degron peptide density on the chips was controlled so that R max < 300 Response UNits (RU).

[3] = tested on: Arabidopsis thaliana wild type (WT) Col‐0; test: Foliar efficacy bioassay, wild type; assay type: in vivo; conditions: foliar application; for GR50 (DW % of NT): dry weight at 14 DAT
Protocol: as §1, §2, §3

[4] = tested on: Arabidopsis thaliana afb5‐1 seedlings; test: Root growth inhibition bioassay, afb5‐1 mutant; assay type: in vivo; conditions: afb5‐1 vs WT dose-response, 8 days
Protocol: A. thaliana seed was surface sterilized in 10 mL of 50% bleach and two drops of Tween‐20 for 12 min and rinsed six times with sterile water. Sterile growth media consisted of half‐strength Murashige and Skoog salts supplemented with 0.4% agar and 0.8% sucrose. In a laminar flow hood, 8 mL of liquid media was transferred to sterile test‐tubes placed in a heat block to maintain media in a liquid state. Compounds were previously diluted in 50/50 DMSO/water to a known molar concentration. A 50‐μL aliquot of diluted compound was added to each tube to give a specified final concentration, normally 10, 1, 0.1, 0.01 or 0.001 μM. A single tube was treated with solvent only as a control. Test compounds were mixed into the media by pipetting up and down three times, then 6 mL of media with test compound was added to one well in a six‐well plate, working from low‐to‐high concentration, and allowed to solidify in the laminar flow hood. Approximately 15 sterilized seeds were placed on the solidified surface and the remaining 2 mL of liquid media was added to cover and disperse seeds. Plates were sealed with paraffin and moved to a Conviron growth chamber set to 60% humidity, 25 °C and light intensity 100 μE m^2 s^−1 with a 16 h photoperiod. After 8 days primary root measurements of five random plants were taken by removing plants from media and measuring with a ruler. Treatments were compared against the solvent control to determine percentage root growth inhibition. Each experiment was run twice and averages were combined for analysis.

AtTIR1 [5] = molecular target: T2, AtTIR1 (Arabidopsis thaliana, UniProt Q570C0); test: SPR relative binding (co-receptor complex formation with Aux/IAA7 degron), AtTIR1; conditions: 50 μM compound; for Relative binding (in words): compared to IAA; for % of IAA binding: normalized to IAA = 100%
T2 construct: His10 (N, cleaved yes); eGFP (N, cleaved yes); FLAG (N, cleaved yes); made in house; host or cells: baculovirus; Trichoplusia ni Hi5 cells (virus generated in Sf9)
Protocol: as §4

AtAFB5 [6] = molecular target: T3, AtAFB5 (Arabidopsis thaliana, UniProt Q9LTX2); test: SPR relative binding (co-receptor complex formation with Aux/IAA7 degron), AtAFB5; conditions: 50 μM compound; for Relative binding (in words): compared to IAA; for % of IAA binding: normalized to IAA = 100%
T3 construct: His10 (N, cleaved yes); eGFP (N, cleaved yes); FLAG (N, cleaved yes); made in house; host or cells: baculovirus; Trichoplusia ni Hi5 cells (virus generated in Sf9)
Protocol: as §4

AtAFB5 [7] = molecular target: T3, AtAFB5; test: biochemical; assay type: binding
Protocol: as §4

AtTIR1 [8] = molecular target: T2, AtTIR1; test: biochemical; assay type: binding
Protocol: as §4

AtAFB2 [9] = molecular target: T1, AtAFB2; test: SPR single cycle kinetics, AtAFB2; assay type: binding
Protocol: as §4

[10] = averaged equilibrium dissociation constant, SPR single cycle kinetics, read-out: Ave KD

T1 sequence (Q9LW29 whole entry, other chains not shown): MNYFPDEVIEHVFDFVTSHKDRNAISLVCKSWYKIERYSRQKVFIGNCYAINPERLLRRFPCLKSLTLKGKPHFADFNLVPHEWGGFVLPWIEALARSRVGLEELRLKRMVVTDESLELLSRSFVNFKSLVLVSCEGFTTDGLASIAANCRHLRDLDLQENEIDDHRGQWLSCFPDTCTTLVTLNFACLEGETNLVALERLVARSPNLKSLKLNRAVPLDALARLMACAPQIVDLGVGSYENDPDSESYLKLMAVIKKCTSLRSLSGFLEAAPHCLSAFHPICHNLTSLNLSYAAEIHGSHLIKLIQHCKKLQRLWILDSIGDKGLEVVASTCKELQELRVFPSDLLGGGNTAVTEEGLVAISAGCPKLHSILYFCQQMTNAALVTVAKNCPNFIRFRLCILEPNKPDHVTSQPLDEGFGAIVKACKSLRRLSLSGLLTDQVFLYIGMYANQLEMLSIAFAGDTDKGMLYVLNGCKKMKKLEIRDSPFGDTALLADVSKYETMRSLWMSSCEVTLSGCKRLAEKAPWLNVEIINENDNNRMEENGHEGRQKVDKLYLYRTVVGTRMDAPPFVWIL
T1 sequence (Q39255 whole entry partner, other chains not shown): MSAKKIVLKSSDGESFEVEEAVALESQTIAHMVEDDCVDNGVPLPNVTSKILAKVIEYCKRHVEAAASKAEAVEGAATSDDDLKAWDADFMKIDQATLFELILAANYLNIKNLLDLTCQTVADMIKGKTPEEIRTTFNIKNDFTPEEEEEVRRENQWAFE
T2 sequence (Q570C0 whole entry, other chains not shown): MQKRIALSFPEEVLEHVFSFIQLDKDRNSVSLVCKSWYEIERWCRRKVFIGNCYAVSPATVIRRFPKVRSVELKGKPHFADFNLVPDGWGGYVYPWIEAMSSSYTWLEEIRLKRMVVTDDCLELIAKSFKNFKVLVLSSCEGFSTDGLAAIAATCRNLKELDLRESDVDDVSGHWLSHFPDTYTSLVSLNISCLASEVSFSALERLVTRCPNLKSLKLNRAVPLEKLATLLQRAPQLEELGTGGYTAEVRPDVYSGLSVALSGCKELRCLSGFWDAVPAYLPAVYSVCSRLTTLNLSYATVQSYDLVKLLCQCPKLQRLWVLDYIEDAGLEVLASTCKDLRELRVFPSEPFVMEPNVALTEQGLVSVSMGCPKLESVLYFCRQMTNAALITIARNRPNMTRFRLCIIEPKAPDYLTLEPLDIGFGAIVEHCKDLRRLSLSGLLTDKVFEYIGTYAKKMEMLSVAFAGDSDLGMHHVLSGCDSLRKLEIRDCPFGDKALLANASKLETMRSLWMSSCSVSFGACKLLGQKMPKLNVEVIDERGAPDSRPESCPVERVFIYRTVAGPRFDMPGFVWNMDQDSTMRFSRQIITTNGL
T2 sequence (Q39255 whole entry partner, other chains not shown): as the sequence (Q39255 whole entry partner, other chains not shown) above
T3 sequence (Q9LTX2 whole entry, other chains not shown): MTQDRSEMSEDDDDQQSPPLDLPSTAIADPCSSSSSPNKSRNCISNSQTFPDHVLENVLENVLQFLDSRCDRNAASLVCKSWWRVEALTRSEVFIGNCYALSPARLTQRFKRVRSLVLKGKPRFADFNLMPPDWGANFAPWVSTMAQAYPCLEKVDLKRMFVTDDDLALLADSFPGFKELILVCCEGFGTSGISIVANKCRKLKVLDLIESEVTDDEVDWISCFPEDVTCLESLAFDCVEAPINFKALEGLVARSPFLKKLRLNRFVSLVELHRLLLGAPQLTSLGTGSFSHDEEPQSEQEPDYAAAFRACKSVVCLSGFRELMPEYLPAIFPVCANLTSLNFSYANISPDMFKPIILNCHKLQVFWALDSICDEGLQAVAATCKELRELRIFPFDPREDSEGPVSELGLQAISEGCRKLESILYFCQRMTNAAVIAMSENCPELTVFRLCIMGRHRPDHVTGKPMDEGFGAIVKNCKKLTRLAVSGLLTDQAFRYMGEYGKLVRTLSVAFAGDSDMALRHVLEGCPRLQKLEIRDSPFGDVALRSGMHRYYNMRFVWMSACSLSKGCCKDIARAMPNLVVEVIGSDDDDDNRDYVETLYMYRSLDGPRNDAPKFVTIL
T3 sequence (Q39255 whole entry partner, other chains not shown): as the sequence (Q39255 whole entry partner, other chains not shown) above

Fold higher affinity for TIR1 (AtTIR1 [8]; from KD values, TIR1 versus other receptors)	SMILES	GR50 (DW % of NT) [1]	Resistance ratio (afb5‐1 vs WT), DW [1]	Relative binding (in words) (AtAFB2 [2])	GR50 (DW % of NT) [3]	GR50 (visual injury) [3]	Resistance of afb5‐1 in root growth inhibition (in words) [4]	Relative binding (in words) (AtTIR1 [5])	Relative binding (in words) (AtAFB5 [6])	GR50 (visual injury) [1]	Resistance ratio (afb5‐1 vs WT), visual injury [1]	pKd (AtAFB5 [7]; [10])	pKd (AtTIR1 [8]; [10])	% of IAA binding (AtAFB2 [2])	% of IAA binding (AtTIR1 [5])	% of IAA binding (AtAFB5 [6])	pKd (AtAFB2 [9]; [10])	pKd (AtAFB5 [7])	pKd (AtTIR1 [8])	pKd (AtAFB2 [9])
–	Nc1cc(Cl)nc(C(=O)O)c1Cl [Aminopyralid]	68.7 g ai ha^−1	20.2	relatively low binding	3.4 g ai ha^−1	40.1 g ai ha^−1	considerable resistance	relatively low binding	relatively low binding	–	–	–	–	–	–	–	–	–	–	–
–	COc1c(Cl)ccc(-c2cc(N)c(Cl)c(C(=O)O)n2)c1F [Halauxifen]	0.6 g ai ha^−1	7.5	–	0.08 g ai ha^−1	0.4 g ai ha^−1	considerable resistance	–	–	2.4 g ai ha^−1	6	5.62	3.89	< 5%	10%	170%	3.48	–	–	–
–	CC(Oc1ccc(Cl)cc1Cl)C(=O)O (stereo not shown) [dichlorprop]	–	–	lower binding	–	–	–	lower binding	lower binding	–	–	–	–	–	–	–	–	–	–	–
–	O=C(O)COc1nc(Cl)c(Cl)cc1Cl [Triclopyr]	18.4 g ai ha^−1	3.9	lower binding than IAA	4.7 g ai ha^−1	31.8 g ai ha^−1	–	lower binding than IAA	lower binding than IAA	41.8 g ai ha^−1	1.3	–	–	–	–	–	–	–	–	–
–	O=C(O)COc1ccc(Cl)cc1Cl [2,4‐D, 2,4‐dichlorophenoxyacetic acid]	9.9 g ai ha^−1	2.5	–	3.9 g ai ha^−1	19.2 g ai ha^−1	No resistance	–	–	40.5 g ai ha^−1	2.1	–	–	22%	29%	40%	–	3.82	3.64	3.41
–	O=C(O)c1nc(Cl)ccc1Cl [Clopyralid]	3999 g ai ha^−1	–	relatively low binding	497 g ai ha^−1	2698 g ai ha^−1	considerable resistance	relatively low binding	relatively low binding	4259 g ai ha^−1	1.6	–	–	–	–	–	–	–	–	–
4 fold	O=C(O)Cc1c[nH]c2ccccc12 [IAA, indole‐3‐acetic acid]	–	–	–	–	–	–	–	–	–	–	4.48	5.10	–	–	–	4.90	–	–	–
–	Nc1c(F)c(-c2ccc(Cl)cc2)nc(C(=O)O)c1Cl [DAS534]	1.2 g ai ha^−1	–	–	–	0.4 g ai ha^−1	–	–	strong bias for binding to AtAFB5	4.3 g ai ha^−1	10.8	–	–	–	–	–	–	–	–	–
